Experiments:
[1] = Blood sugar level of a patient after application of the topical mixture to the skin; type: in vivo, human; details: presence of L-Histidine in the mixture
Source text: The present invention is best practiced by application of the trivalent Chromium composition at least twice daily. Preferably the application will be made before sleep and early in the morning ideally before exercise. Although the present invention may be applied to the entire body it is recommended it be applied to the legs and groin area where easy access to a large number of blood vessels can be achieved. Additionally, the legs and groin area contained some of the most exercised muscles in the human body. An alternative carrier base can be achieved through infusion of the trivalent Chromium and other elements into a bar of soap so as to achieve even distribution over the entire body. FIGS. 1 and 2 and the charts below show the blood sugar level of a patient utilizing the present invention in accordance with the formulation set above. The blood sugar level can be seen to drop dramatically after application of the present invention to the surface of the skin.

[2] = test system: excess Iron within the cells; assay: Tests of trivalent Chromium on excess Iron within the cells of humans; type: in vivo; details: absorbed into the bloodstream and delivered to the individual cells of humans
Source text: Also included in the present invention is trivalent Chromium. As currently contemplated, the Chromium will be in the form of Chromium Picolinate, Chromium Polynicotinate, or Chromium Chloride. The essential element is trivalent Chromium. The choice of Chromium Picolinate, Chromium Polynicotinate, or Chromium Chloride has been made by the inventors because they are readily, commercially available in most health food stores, pharmacies, and other sources of dietary supplements. […] This is a desirable treatment for people suffering from Diabetes and there are currently studies, which indicate that “Iron Loading” can possibly be attached to the occurrence of cancer. A possible alternative or compliment to the Chromium of the present invention is Vanadium in the form of Vanadyl Sulfate. A combination of both Chromium and Vanadium compounds have been utilized in some tests with desirable results.

Row | Molecule | levels of blood sugar in patients [1] | levels of excess Iron within the cells [2]
1 | N[C@@H](Cc1c[nH]cn1)C(=O)O [L-Histidine] | beneficial to lowering the levels of blood sugar | 
2 | trivalent Chromium |  | reduces the levels of excess Iron within the cells

Source: patent US20130344166A1, “TOPICAL MIXTURE AND METHOD FOR DERMAL APPLICATION TO REMOVE EXCESS IRON AND OTHER HEAVY METALS FROM CELLULAR TISSUE” (priority 2012, published 2013)
